# Experimental data from patent publication US20240050428A1 (Cullgen (Shanghai), Inc., priority 2020, published 2024).
# Read-outs that look alike come from different tables or passages of the source.
# Columns and labels:
# [1] = tested on: MV4;11 cells; experiment: Cell viability assay (CellTiter-Glo) in MV4;11 cells, alone or with gilteritinib; format: cell-based; conditions: Homo sapiens, MV4-11, 72 h, MV4;11 cells, three days, CellTiter-Glo, read-out: MV4
# [2] = tested on: MOLM-13 cells; experiment: Cell viability assay (CellTiter-Glo) in MOLM-13 cells, alone or with gilteritinib; format: cell-based; conditions: Homo sapiens, MOLM-13, 72 h, MOLM-13 cells, three days, CellTiter-Glo
# [3] = compound alone (without gilteritinib), 11 IC50
# [4] = compound with gilteritinib 10 nM, 11 IC50 gilteritinib
# [5] = compound alone (without gilteritinib), read-out: MOLM-13 IC50
# [6] = compound with gilteritinib 20 nM, read-out: MOLM-13 IC50 gilteritinib
Compound,"IC50 [1, 3]","IC50 [1, 4]","IC50 [2, 5]","IC50 [2, 6]"
"O=C1CCC(N2C(=O)c3ccc(NCCC4CC5(C4)CC(n4cc(-c6cnc7ccccc7n6)cn4)C5)cc3C2=O)C(=O)N1 (stereo not drawn) [GS-564, 2-(2,6-Dioxopiperidin-3-yl)-5-((2-(6-(4-(quinoxalin-2-yl)-1H-pyrazol-1-yl)spiro[3.3]heptan-2-yl)ethyl)amino)isoindoline-1,3-dione]",10 to 100 nM,< 10 nM,10 to 100 nM,< 10 nM
"O=C1CCC(N2C(=O)c3cccc(NCCCC4CC(n5cc(-c6cnc7ccccc7n6)cn5)C4)c3C2=O)C(=O)N1 (stereo not drawn) [GS-565, 2-(2,6-Dioxopiperidin-3-yl)-4-((3-(3-(4-(quinoxalin-2-yl)-1-pyrazol-1-yl)cyclobutyl)propyl)amino)isoindoline-1,3-dione]",> 1000 nM,100 to 1000 nM,> 1000 nM,10 to 100 nM
"O=C1CCC(N2C(=O)c3ccc(NCCCC4CC(n5cc(-c6cnc7ccc(CC8CNC8)cc7n6)cn5)C4)cc3C2=O)C(=O)N1 (stereo not drawn) [GS-566, 5-((3-(3-(4-(7-(Azetidin-3-ylmethyl)quinoxalin-2-yl)-1H-pyrazol-1-yl)cyclobutyl)propyl)amino)-2-(2,6-dioxopiperidin-3-yl)isoindoline-1,3-dione]",> 1000 nM,100 to 1000 nM,> 1000 nM,100 to 1000 nM
"O=C1CCC(N2C(=O)c3ccc(NCCCC4CC(n5cc(-c6cnc7ccc(NC8COC8)cc7n6)cn5)C4)cc3C2=O)C(=O)N1 (stereo not drawn) [GS-567, 2-(2,6-Dioxopiperidin-3-yl)-5-((3-(3-(4-(7-(oxetan-3-ylamino)quinoxalin-2-yl)-1H-pyrazol-1-yl)cyclobutyl)propyl)amino)isoindoline-1,3-dione]",100 to 1000 nM,10 to 100 nM,100 to 1000 nM,< 10 nM
"O=C1CCC(N2C(=O)c3ccc(NCCC[C@H]4C[C@H](n5cc(-c6cnc7ccccc7n6)c(C6CC6)n5)C4)cc3C2=O)C(=O)N1 (stereo partly drawn) [GS-568, 5-((3-((trans)-3-(3-Cyclopropyl-4-(quinoxalin-2-yl)-1H-pyrazol-1-yl)cyclobutyl)propyl)amino)-2-(2,6-dioxopiperidin-3-yl)isoindoline-1,3-dione]",10 to 100 nM,< 10 nM,10 to 100 nM,< 10 nM
"O=C1CCC(N2C(=O)c3ccc(NCCCCCCn4cc(-c5cnc6ccc(N7CCOCC7)cc6n5)c(C5CC5)n4)cc3C2=O)C(=O)N1 (stereo not drawn) [GS-569, 5-((6-(3-Cyclopropyl-4-(7-morpholinoquinoxalin-2-yl)-1H-pyrazol-1-yl)hexyl)amino)-2-(2,6-dioxopiperidin-3-yl)isoindoline-1,3-dione]",< 10 nM,< 10 nM,< 10 nM,< 10 nM
"CN1CCN(c2ccc3ncc(-c4cn(CCCCCCNc5ccc6c(c5)C(=O)N(C5CCC(=O)NC5=O)C6=O)nc4C4CC4)nc3c2)CC1 (stereo not drawn) [GS-570, 5-((6-(3-Cyclopropyl-4-(7-(4-methylpiperazin-1-yl)quinoxalin-2-yl)-1H-pyrazol-1-yl)hexyl)amino)-2-(2,6-dioxopiperidin-3-yl)isoindoline-1,3-dione]",10 to 100 nM,< 10 nM,100 to 1000 nM,< 10 nM
"O=C1CCC(N2C(=O)c3ccc(NCCCCCCn4cc(-c5cnc6ccc(C7CCOCC7)cc6n5)c(C5CC5)n4)cc3C2=O)C(=O)N1 (stereo not drawn) [GS-571, 5-((6-(3-Cyclopropyl-4-(7-(tetrahydro-2H-pyran-4-yl)quinoxalin-2-yl)-1H-pyrazol-1-yl)hexyl)amino)-2-(2,6-dioxopiperidin-3-yl)isoindoline-1,3-dione]",< 10 nM,< 10 nM,10 to 100 nM,< 10 nM
"CN1CCC(c2ccc3ncc(-c4cn(CCCCCCNc5ccc6c(c5)C(=O)N(C5CCC(=O)NC5=O)C6=O)nc4C4CC4)nc3c2)CC1 (stereo not drawn) [GS-572, 5-((6-(3-Cyclopropyl-4-(7-(1-methylpiperidin-4-yl)quinoxalin-2-yl)-1H-pyrazol-1-yl)hexyl)amino)-2-(2,6-dioxopiperidin-3-yl)isoindoline-1,3-dione]",10 to 100 nM,< 10 nM,100 to 1000 nM,< 10 nM
"C[C@H]1CN(c2ccc3ncc(-c4cnn([C@H]5C[C@H](CCCNc6ccc7c(c6)C(=O)N(C6CCC(=O)NC6=O)C7=O)C5)c4)nc3c2)CCN1C (stereo partly drawn) [GS-575, 5-((3-(trans-3-(4-(7-((S)-3,4-Dimethylpiperazin-1-yl)quinoxalin-2-yl)-1H-pyrazol-1-yl)cyclobutyl)propyl)amino)-2-(2,6-dioxopiperidin-3-yl)isoindoline-1,3-dione]",10 to 100 nM,< 10 nM,10 to 100 nM,< 10 nM
"C[C@H]1CN(c2ccc3ncc(-c4cnn([C@H]5C[C@H](CCCNc6ccc7c(c6)C(=O)N(C6CCC(=O)NC6=O)C7=O)C5)c4)nc3c2)CCN1 (stereo partly drawn) [GS-576, 2-(2,6-Dioxopiperidin-3-yl)-5-((3-(trans-3-(4-(7-((S)-3-methylpiperazin-1-yl)quinoxalin-2-yl)-1H-pyrazol-1-yl)cyclobutyl)propyl)amino)isoindoline-1,3-dione]",10 to 100 nM,< 10 nM,10 to 100 nM,< 10 nM
"O=C1CCC(N2C(=O)c3ccc(NC[C@H]4C[C@H](n5cc(-c6ccccn6)cn5)C4)cc3C2=O)C(=O)N1 (stereo partly drawn) [GS-577, 2-(2,6-Dioxopiperidin-3-yl)-5-(((trans-3-(4-(pyridin-2-yl)-1H-pyrazol-1-yl)cyclobutyl)methyl)amino)isoindoline-1,3-dione]",> 1000 nM,> 1000 nM,100 to 1000 nM,100 to 1000 nM
"Cc1cccc(-c2cnn([C@H]3C[C@H](CNc4ccc5c(c4)C(=O)N(C4CCC(=O)NC4=O)C5=O)C3)c2)n1 (stereo partly drawn) [GS-578, 2-(2,6-Dioxopiperidin-3-yl)-5-(((trans-3-(4-(6-methylpyridin-2-yl)-1H-pyrazol-1-yl)cyclobutyl)methyl)amino)isoindoline-1,3-dione]",> 1000 nM,100 to 1000 nM,> 1000 nM,100 to 1000 nM
"O=C1CCC(N2C(=O)c3ccc(NC[C@H]4C[C@H](n5cc(-c6cnc7ccccc7n6)c(C6CC6)n5)C4)cc3C2=O)C(=O)N1 (stereo partly drawn) [GS-579, 5-(((trans-3-(3-Cyclopropyl-4-(quinoxalin-2-yl)-1H-pyrazol-1-yl)cyclobutyl)methyl)amino)-2-(2,6-dioxopiperidin-3-yl)isoindoline-1,3-dione]",< 10 nM,< 10 nM,< 10 nM,< 10 nM
"O=C1CCC(N2C(=O)c3ccc(NCCC[C@H]4C[C@H](n5cc(-c6cnc7ccc(N8CCN(C9CCC9)CC8)cc7n6)cn5)C4)cc3C2=O)C(=O)N1 (stereo partly drawn) [GS-580, 5-((3-(trans-3-(4-(7-(4-Cyclobutylpiperazin-1-yl)quinoxalin-2-yl)-1H-pyrazol-1-yl)cyclobutyl)propyl)amino)-2-(2,6-dioxopiperidin-3-yl)isoindoline-1,3-dione]",10 to 100 nM,< 10 nM,10 to 100 nM,< 10 nM
"C[C@@H]1CN(c2ccc3ncc(-c4cnn([C@H]5C[C@H](CCCNc6ccc7c(c6)C(=O)N(C6CCC(=O)NC6=O)C7=O)C5)c4)nc3c2)CCN1C (stereo partly drawn) [GS-581, 5-((3-(trans-3-(4-(7-((R)-3,4-Dimethylpiperazin-1-yl)quinoxalin-2-yl)-1H-pyrazol-1-yl)cyclobutyl)propyl)amino)-2-(2,6-dioxopiperidin-3-yl)isoindoline-1,3-dione]",> 1000 nM,10 to 100 nM,> 1000 nM,< 10 nM
"O=C1CCC(N2C(=O)c3ccc(NCCC[C@H]4C[C@H](n5cc(-c6ccccn6)cn5)C4)cc3C2=O)C(=O)N1 (stereo partly drawn) [GS-582, 2-(2,6-Dioxopiperidin-3-yl)-5-((3-(trans-3-(4-(pyridin-2-yl)-1H-pyrazol-1-yl)cyclobutyl)propyl)amino)isoindoline-1,3-dione]",100 to 1000 nM,10 to 100 nM,> 1000 nM,10 to 100 nM
"Cc1cccc(-c2cnn([C@H]3C[C@H](CCCNc4ccc5c(c4)C(=O)N(C4CCC(=O)NC4=O)C5=O)C3)c2)n1 (stereo partly drawn) [GS-584, 2-(2,6-Dioxopiperidin-3-yl)-5-((3-(trans-3-(4-(6-methylpyridin-2-yl)-1H-pyrazol-1-yl)cyclobutyl)propyl)amino)isoindoline-1,3-dione]",10 to 100 nM,10 to 100 nM,100 to 1000 nM,< 10 nM
"O=C1CCC(N2C(=O)c3ccc(NCCC[C@H]4C[C@H](n5cc(-c6cnc7ccc(NC8COC8)cc7n6)cn5)C4)cc3C2=O)C(=O)N1 (stereo partly drawn) [GS-585, 2-(2,6-Dioxopiperidin-3-yl)-5-((3-(trans-3-(4-(7-(oxetan-3-ylamino)quinoxalin-2-yl)-1H-pyrazol-1-yl)cyclobutyl)propyl)amino)isoindoline-1,3-dione]",10 to 100 nM,< 10 nM,10 to 100 nM,< 10 nM
"O=C1CCC(N2C(=O)c3ccc(NCCC[C@H]4C[C@@H](n5cc(-c6cnc7cc(NC8COC8)ccc7n6)c(C6CC6)n5)C4)cc3C2=O)C(=O)N1 (stereo partly drawn) [GS-586, 5-((3-(Cis-3-(3-cyclopropyl-4-(6-(oxetan-3-ylamino)quinoxalin-2-yl)-1H-pyrazol-1-yl)cyclobutyl)propyl)amino)-2-(2,6-dioxopiperidin-3-yl)isoindoline-1,3-dione]",10 to 100 nM,< 10 nM,10 to 100 nM,< 10 nM
"O=C1CCC(N2C(=O)c3ccc(NCCC[C@H]4C[C@H](n5cc(-c6cnc7ccc(N8CCN(CC(F)(F)F)CC8)cc7n6)cn5)C4)cc3C2=O)C(=O)N1 (stereo partly drawn) [GS-587, 2-(2,6-Dioxopiperidin-3-yl)-5-((3-(trans-3-(4-(7-(4-(2,2,2-trifluoroethyl)piperazin-1-yl)quinoxalin-2-yl)-1H-pyrazol-1-yl)cyclobutyl)propyl)amino)isoindoline-1,3-dione]",10 to 100 nM,< 10 nM,100 to 1000 nM,< 10 nM
